Results reported in patent publication US20230085307A1, “PYRIDAZINONE COMPOUND AND HERBICIDE” (NISSAN CHEMICAL CORPORATION, priority 2019, published 2023).

System: late watergrass
Assay: Test Example 1: herbicidal activity, application before weed generation under submerged conditions (Table 16, symbol A)
Format: in vivo, late watergrass (Echinochloa oryzicola)
Settings: 320 g/ha applied herbicide
In short: (§1)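 Alluvial soil was flooded to 4 cm depth, weed seeds were sown mixed and 2.5-leaf rice seedlings were transplanted. On sowing day, the compound's emulsion, diluted in water to a set dose, was applied to the water surface. Plants grew at 25–30 °C and were scored 0–5 after three weeks.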

SMILES	Herbicidal effect on A: late watergrass (grade 0-5)
CCOC(=O)Oc1c(C)nn(C)c(=O)c1-c1c(-c2ccc(OC(F)F)cc2)sc2ccc(F)cc12 [2-292]	5 (Herbicidal rate of 90% or more (almost completely withered))

System: Japanese bulrush
Assay: Test Example 1: herbicidal activity, application before weed generation under submerged conditions (Table 16, symbol B)
Format: in vivo, Japanese bulrush (Schoenoplectus juncoides)
Settings: 320 g/ha applied herbicide
In short: as §1

SMILES	Herbicidal effect on B: Japanese bulrush (grade 0-5)
CCOC(=O)Oc1c(C)nn(C)c(=O)c1-c1c(-c2ccc(OC(F)F)cc2)sc2ccc(F)cc12 [2-292]	5 (Herbicidal rate of 90% or more (almost completely withered))

System: oval-leafed pondweed
Assay: Test Example 1: herbicidal activity, application before weed generation under submerged conditions (Table 16, symbol C)
Format: in vivo, oval-leafed pondweed (Monochoria vaginalis)
Settings: 320 g/ha applied herbicide
In short: as §1

SMILES	Herbicidal effect on C: oval-leafed pondweed (grade 0-5)
CCOC(=O)Oc1c(C)nn(C)c(=O)c1-c1c(-c2ccc(OC(F)F)cc2)sc2ccc(F)cc12 [2-292]	4 (Herbicidal rate of 70% or more and less than 90%)

System: barnyard grass
Assay: Test Example 3: herbicidal effect by foliage application, Wagner pot (Table 18, symbol H)
Format: in vivo, barnyard grass (Echinochloa crus-galli)
Settings: amount of applied herbicide 320 g/ha
In short: (§2)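 Plants were sown in alluvial soil held under 0.1–0.5 cm standing water and grown 14 days in a greenhouse at 25–30 °C. An emulsifiable formulation, water-diluted to the set dose, was then sprayed onto the foliage, and effects were scored three weeks later using previously defined criteria.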

SMILES	herbicidal effect on H: barnyard grass
CCOC(=O)Oc1c(C)nn(C)c(=O)c1-c1c(-c2ccc(OC(F)F)cc2)sc2ccc(F)cc12 [2-292]	5 (Herbicidal rate of 90% or more (almost completely withered))

System: Chinese sprangletop
Assay: Test Example 3: herbicidal effect by foliage application, Wagner pot (Table 18, symbol D)
Format: in vivo, chinese sprangletop (Leptochloa chinensis)
Settings: amount of applied herbicide 320 g/ha
In short: as §2

SMILES	herbicidal effect on D: Chinese sprangletop
CCOC(=O)Oc1c(C)nn(C)c(=O)c1-c1c(-c2ccc(OC(F)F)cc2)sc2ccc(F)cc12 [2-292]	4 (Herbicidal rate of 70% or more and less than 90%)

System: rice flat sedge
Assay: Test Example 3: herbicidal effect by foliage application, Wagner pot (Table 18, symbol E)
Format: in vivo, rice flat sedge (Cyperus iria)
Settings: amount of applied herbicide 320 g/ha
In short: as §2

SMILES	herbicidal effect on E: rice flat sedge
CCOC(=O)Oc1c(C)nn(C)c(=O)c1-c1c(-c2ccc(OC(F)F)cc2)sc2ccc(F)cc12 [2-292]	4 (Herbicidal rate of 70% or more and less than 90%)

System: Italian ryegrass
Assay: Test Example 4: herbicidal effect by soil treatment (Table 19, symbol K)
Format: in vivo, Italian ryegrass (Lolium multiflorum)
Settings: amount of applied herbicide 320 g/ha
In short: (§3)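 Pre-emergence style soil spray: seeds under ~1.5 cm sterilized diluvial soil received a uniform coat of emulsion diluted to the predetermined herbicide amount. Greenhouse 25–30° C; readout at week three on previously defined criteria.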

SMILES	herbicidal effect on K: Italian ryegrass
CCOC(=O)Oc1c(C)nn(C)c(=O)c1-c1c(-c2ccc(OC(F)F)cc2)sc2ccc(F)cc12 [2-292]	5 (Herbicidal rate of 90% or more (almost completely withered))

System: windgrass
Assay: Test Example 4: herbicidal effect by soil treatment (Table 19, symbol L)
Format: in vivo, windgrass (Apera spica-venti)
Settings: amount of applied herbicide 320 g/ha
In short: as §3

SMILES	herbicidal effect on L: windgrass
CCOC(=O)Oc1c(C)nn(C)c(=O)c1-c1c(-c2ccc(OC(F)F)cc2)sc2ccc(F)cc12 [2-292]	1 (Herbicidal rate of 5% or more and less than 20%)

System: lambsquarters
Assay: Test Example 4: herbicidal effect by soil treatment (Table 19, symbol O)
Format: in vivo, lambsquarters (Chenopodium album)
Settings: amount of applied herbicide 320 g/ha
In short: as §3

SMILES	herbicidal effect on O: lambsquarters
CCOC(=O)Oc1c(C)nn(C)c(=O)c1-c1c(-c2ccc(OC(F)F)cc2)sc2ccc(F)cc12 [2-292]	5 (Herbicidal rate of 90% or more (almost completely withered))

System: chickweed
Assay: Test Example 4: herbicidal effect by soil treatment (Table 19, symbol P)
Format: in vivo, common chickweed (Stellaria media)
Settings: amount of applied herbicide 320 g/ha
In short: as §3

SMILES	herbicidal effect on P: chickweed
CCOC(=O)Oc1c(C)nn(C)c(=O)c1-c1c(-c2ccc(OC(F)F)cc2)sc2ccc(F)cc12 [2-292]	4 (Herbicidal rate of 70% or more and less than 90%)

System: persian speedwell
Assay: Test Example 4: herbicidal effect by soil treatment (Table 19, symbol R)
Format: in vivo, Persian speedwell (Veronica persica)
Settings: amount of applied herbicide 320 g/ha
In short: as §3

SMILES	herbicidal effect on R: persian speedwell
CCOC(=O)Oc1c(C)nn(C)c(=O)c1-c1c(-c2ccc(OC(F)F)cc2)sc2ccc(F)cc12 [2-292]	5 (Herbicidal rate of 90% or more (almost completely withered))

System: southern crabgrass
Assay: Test Example 5: herbicidal effect by foliage application, plastic box (Table 20, symbol F)
Format: in vivo, southern crabgrass (Digitaria ciliaris)
Settings: foliage application, AAH 320 g/ha, evaluated three weeks after application
In short: (§4)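 Plants were sown into sterilized diluvial soil under about 1.5 cm cover and kept in a greenhouse at 25° C. to 30° C. Fourteen days on, foliage received an even spray of the diluted emulsion. Herbicidal or crop effect was judged three weeks afterwards.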

SMILES	F: southern crabgrass, herbicidal effect (criteria 0-5)
CCOC(=O)Oc1c(C)nn(C)c(=O)c1-c1c(-c2ccc(OC(F)F)cc2)sc2ccc(F)cc12 [2-292]	5 (Herbicidal rate of 90% or more (almost completely withered))

System: barnyard grass
Assay: Test Example 5: herbicidal effect by foliage application, plastic box (Table 20, symbol H)
Format: in vivo, barnyard grass (Echinochloa crus-galli)
Settings: foliage application, AAH 320 g/ha, evaluated three weeks after application
In short: as §4

SMILES	H: barnyard grass, herbicidal effect (criteria 0-5)
CCOC(=O)Oc1c(C)nn(C)c(=O)c1-c1c(-c2ccc(OC(F)F)cc2)sc2ccc(F)cc12 [2-292]	5 (Herbicidal rate of 90% or more (almost completely withered))

System: wild oat
Assay: Test Example 5: herbicidal effect by foliage application, plastic box (Table 20, symbol I)
Format: in vivo, wild oat (Avena fatua)
Settings: foliage application, AAH 320 g/ha, evaluated three weeks after application
In short: as §4

SMILES	I: wild oat, herbicidal effect (criteria 0-5)
CCOC(=O)Oc1c(C)nn(C)c(=O)c1-c1c(-c2ccc(OC(F)F)cc2)sc2ccc(F)cc12 [2-292]	3 (Herbicidal rate of 40% or more and less than 70%)

System: blackgrass
Assay: Test Example 5: herbicidal effect by foliage application, plastic box (Table 20, symbol J)
Format: in vivo, blackgrass (Alopecurus myosuroides)
Settings: foliage application, AAH 320 g/ha, evaluated three weeks after application
In short: as §4

SMILES	J: blackgrass, herbicidal effect (criteria 0-5)
CCOC(=O)Oc1c(C)nn(C)c(=O)c1-c1c(-c2ccc(OC(F)F)cc2)sc2ccc(F)cc12 [2-292]	4 (Herbicidal rate of 70% or more and less than 90%)

System: windgrass
Assay: Test Example 5: herbicidal effect by foliage application, plastic box (Table 20, symbol L)
Format: in vivo, windgrass (Apera spica-venti)
Settings: foliage application, AAH 320 g/ha, evaluated three weeks after application
In short: as §4

SMILES	L: windgrass, herbicidal effect (criteria 0-5)
CCOC(=O)Oc1c(C)nn(C)c(=O)c1-c1c(-c2ccc(OC(F)F)cc2)sc2ccc(F)cc12 [2-292]	2 (Herbicidal rate of 20% or more and less than 40%)

System: velvetleaf
Assay: Test Example 5: herbicidal effect by foliage application, plastic box (Table 20, symbol M)
Format: in vivo, velvetleaf (Abutilon theophrasti)
Settings: foliage application, AAH 320 g/ha, evaluated three weeks after application
In short: as §4

SMILES	M: velvetleaf, herbicidal effect (criteria 0-5)
CCOC(=O)Oc1c(C)nn(C)c(=O)c1-c1c(-c2ccc(OC(F)F)cc2)sc2ccc(F)cc12 [2-292]	5 (Herbicidal rate of 90% or more (almost completely withered))

System: redroot pigweed
Assay: Test Example 5: herbicidal effect by foliage application, plastic box (Table 20, symbol N)
Format: in vivo, redroot pigweed (Amaranthus retroflexus)
Settings: foliage application, AAH 320 g/ha, evaluated three weeks after application
In short: as §4

SMILES	N: redroot pigweed, herbicidal effect (criteria 0-5)
CCOC(=O)Oc1c(C)nn(C)c(=O)c1-c1c(-c2ccc(OC(F)F)cc2)sc2ccc(F)cc12 [2-292]	5 (Herbicidal rate of 90% or more (almost completely withered))

System: chickweed
Assay: Test Example 5: herbicidal effect by foliage application, plastic box (Table 20, symbol P)
Format: in vivo, common chickweed (Stellaria media)
Settings: foliage application, AAH 320 g/ha, evaluated three weeks after application
In short: as §4

SMILES	P: chickweed, herbicidal effect (criteria 0-5)
CCOC(=O)Oc1c(C)nn(C)c(=O)c1-c1c(-c2ccc(OC(F)F)cc2)sc2ccc(F)cc12 [2-292]	5 (Herbicidal rate of 90% or more (almost completely withered))
